Results from PMC9127371, “Assembly of nuclear dimers of PI3K regulatory subunits is regulated by the Cdc42-activated tyrosine kinase ACK” (The Journal of Biological Chemistry, 2022).

Legend:
Assay type in all cases: cell-based
[1] = tested on: HEK293T cells expressing Y599F p85β; experiment: Proliferation of HEK293T cells stably expressing Y599F p85β; settings: AIM-100 8 μM; DMEM + 10% FBS; 1 μg/ml doxycycline; live cell counts, fold change over 24 h; three independent experiments
Protocol: (§1) Figure 4 Proliferation of HEK293T cells expressing ACK and p85β variants.A, proliferation of HEK293T cells stably expressing wtACK and caACK in 1% FBS. HEK293T cells stably expressing empty vector (control) or HA-tagged wtACK or caACK were seeded at a density of 3 × 10^4 cells per well. Cells were plated in replicates of three, and live cell counts were obtained at the times indicated. Data are plotted as fold change over t = 0 (seeding density). Data from three independent experiments are shown. Error bars represent SD. […] GAPDH is included as a loading control. Data are represented on the right in a bar chart with group significance testing performed by a two-way ANOVA; ∗p <0.05; ∗∗p < 0.01. B, proliferation of HEK293T cells stably expressing empty vector (control), WT p85β, or Y599F p85β. HEK293T cells stably expressing inducible FLAG-tagged WT p85β or p85β Y599F were seeded at a density of 3 × 10^4 cells per well and incubated at 37 °C for 16 h. All cells were then treated with 1 μg/ml doxycycline and incubated at 37 °C for the times indicated before live cell counts were taken. Data are plotted as fold change over the cell count at 24 h post doxycycline treatment. […]
(§2) Matched cell lines were chosen that had similar expression levels of the transgene. […] Cells were trypsinized and dispersed using a syringe before being counted using a Countess automated cell counter at specific timepoints. […]

[2] = tested on: ACK–p85α complex; experiment: Co-immunoprecipitation of ACK with p85α from nuclear-enriched fractions of HEK293T cells; settings: AIM-100 8 μM, anti-FLAG immunoprecipitation
Protocol: (§3) Figure 7 Subcellular localization of the ACK–p85α complex. ACK and WT p85α were expressed alone and together in HEK293T cells. Where indicated, cells were treated with 8 μM AIM-100. Fractionation was judged using anti-HSP56 to indicate cytoplasmic extracts and anti-fibrillarin to indicate nuclear-enriched fractions. Nuclear and cytoplasmic-enriched fractions were normalized using the Bradford assay, and FLAG-p85α was immunoprecipitated from fractions containing equal total protein using an anti-FLAG antibody. Top panel: Immunoprecipitation of FLAG-p85α and co-immunoprecipitation of HA-ACK was assessed by Western blotting using anti-FLAG and anti-HA antibodies. Bottom panel: Expression of FLAG-p85α and HA-ACK along with active ACK levels was confirmed by Western blotting of whole cell lysate (WCL) samples collected prior to cell fractionation. ACK, activated Cdc42-associated kinase.
Small-scale co-immunoprecipitations were performed using 1 μg antibody cross-linked to Protein G Dynabeads (Life Technologies) with dimethyl pimelimidate. HEK293T cells were grown in 10 cm dishes to 70% confluence and then transfected for 40 h. […]
Cells were grown in 10 cm dishes to 70% confluence and then transfected for 40 h. […] Cytoplasmic and nuclear-enriched fractions were then either analyzed by SDS-PAGE gel directly or used in co-immunoprecipitation studies.

[3] = tested on: HEK293T cells expressing WT p85β; experiment: Proliferation of HEK293T cells stably expressing WT p85β; settings: AIM-100 8 μM; DMEM + 10% FBS; 1 μg/ml doxycycline; live cell counts, fold change over 24 h; three independent experiments
Protocol: as §1, §2

[4] = tested on: pTyr284 ACK; experiment: Active ACK level (pTyr284 ACK Western blot) in HEK293T cells; settings: AIM-100 8 μM; HEK293T cells expressing ACK and WT p85α; Western blot of whole cell lysate
Protocol: as §3, with “kinase. […]” for “kinase.”

[5] = tested on: p85α–p85β complex; experiment: Co-immunoprecipitation of V5-p85β with FLAG-p85α from HEK293T cells; settings: serum starved (0.05% serum, 16 h), then EGF 100 ng/ml for 5 min or insulin 100 μg/ml for 90 min; anti-FLAG immunoprecipitation; Fig. 6B
Protocol: (§4) Figure 6 Dimerization of the regulatory subunits. HEK293T cells were transfected with control (GFP), FLAG-p50α (A) or FLAG-p85α (B) alone or with V5-p85β. Expression of the proteins in whole cell lysates (WCLs) is shown in the bottom panels. As indicated, cells were cultured in high serum (10% serum) or serum starved (0.05% serum) for 16 h and prior to lysis were either left untreated or stimulated with either EGF (100 ng/ml for 5 min) or insulin (100 μg/ml for 90 min). Cells were harvested 40 h after transfection and subject to immunoprecipitation using anti-FLAG antibodies. Co-precipitation of V5-p85β was assessed by Western blotting of immunoprecipitated samples using anti-V5 antibodies (top panels). C, WT p85β, WT p50α, and Y307D p50α (equivalent to Tyr607 in p85α) were expressed alone or co-expressed in HEK293T cells cultured in low serum. Samples of WCLs were analyzed by Western blotting using the antibodies indicated and are shown in lower panels. GAPDH is included as a loading control. FLAG-tagged p50α variants were immunoprecipitated from cell lysates using an anti-FLAG antibody, and the co-immunoprecipitation of p85β was assessed using an anti-V5 antibody (top panels). Results are representative of at least three independent experiments. […]

[6] = tested on: p50α–p85β complex; experiment: Co-immunoprecipitation of V5-p85β with FLAG-p50α from HEK293T cells; settings: serum starved (0.05% serum, 16 h), insulin 100 μg/ml for 90 min; anti-FLAG immunoprecipitation; Fig. 6A
Protocol: as §4

Row | Molecule | effect on proliferation of cells expressing Y599F p85β [1] | p85α–ACK complex formation in the nucleus [2] | effect on proliferation of cells expressing WT p85β [3] | active ACK levels (pTyr284 ACK) [4] | p85α–p85β complex formation [5] | p50α–p85β complex formation [6]
1 | c1ccc(-c2oc3ncnc(NC[C@@H]4CCCO4)c3c2-c2ccccc2)cc1 [AIM-100] | did not affect | did not block p85α–ACK complex formation | grew at a reduced rate | reduced active ACK levels | – | –
2 | EGF: EGF (a known stimulator of ACK) (NSDSECPLSHDGYCLHDGVCMYIEALDKYACNCVVGYIGERCQYRDLKWWELR; UniProt P01133 971-1023, looked up) | – | – | – | – | increase | –
3 | insulin: Tyr607 phosphorylation has been detected downstream of insulin stimulation | – | – | – | – | not enhanced | increased complex formation
